According to patent US20100190755A1, “TETRACYCLINE COMPOUNDS FOR THE TREATMENT OF RHEUMATOID ARTHRITIS AND RELATED METHODS OF TREATMENT” (priority 2008, published 2010):
≈ marks a conversion by molar mass, not a printed value.

How the values were obtained:
[1] = system: Protein synthesis (E. coli S30 Extract System); experiment: Protein synthesis inhibition, in vitro transcription/translation assay (E. coli S30 Extract System for Circular DNA); assay type: biochemical
[2] = Pharmacokinetics in rats after i.v. and oral dosing; assay type: in vivo; conditions: rat; for bioavailability: male, CD/IGS, after oral dosing of 5 mg/kg, read-out: PK Parameters (Rat) % F, fraction of absorption; for bioavailability / half-life: plasma; for half-life: male CD/IGS rats, 1 mg/kg i.v. or 5 mg/kg oral, read-out: PK Parameters (Rat) T1/2 (converted)
Experimental: Pre-cannulated (jugular vein and carotid artery for i.v. group and carotid artery for oral group) male CD/IGS rats (approximately 250 g) were used. Rats were fasted overnight prior to dosing with access to food restored 2 hours after dosing. Rats were administered with approximately 0.25 mL compound (1 mg/kg dose) for i.v. route (via jugular vein over 20 seconds) or 0.5 mL solution (5 mg/kg dose) orally. Blood (300 μL) was collected in tubes with EDTA anticoagulant at various time points, centrifuged and plasma collected and stored frozen at −20° C. Animals were euthanized by CO2 following the final blood collection. Plasma was extracted (0.1% trifluoroacetic acid in 67% acetonitrile/33% water) and levels of compound quantified by HPLC/MS against a standard curve.

[3] = system: E. coli 25922; experiment: Antibacterial activity MIC, Gram- (Table 9); assay type: cell-based; conditions: Escherichia coli, CAMHB, 35° C., approximately 18 hr
Experimental: (§1) 2 mg of each compound is dissolved in 100 μl of DMSO. The solution is then added to cation-adjusted Mueller Hinton broth (CAMHB), which results in a final compound concentration of 200 μg per ml. The tetracycline compound solutions are diluted to 50 μL volumes, with a test compound concentration of 0.098 μg/ml. Optical density (OD) determinations are made from fresh log-phase broth cultures of the test strains. Dilutions are made to achieve a final cell density of 1×10^6 CFU/ml. At OD=1, cell densities for different genera should be approximately:
(§2) 50 μl of the cell suspensions are added to each well of microtiter plates. The final cell density should be approximately 5×10^5 CFU/ml. These plates are incubated at 35° C. in an ambient air incubator for approximately 18 hr. The plates are read with a microplate reader and are visually inspected when necessary. The MIC is defined as the lowest concentration of the tetracycline compound that inhibits growth.

[4] = system: collagen-induced arthritis (CIA) in male DBA/1 mice; experiment: Murine collagen-induced arthritis (CIA) model, Example 2; assay type: in vivo, mouse; conditions: for EC50 in inflammation suppression in CIA mice: i.p. daily
Experimental: Four non-antibacterial analogues of minocycline (J, W, AF and AT) were synthesized and tested in the murine model of the disease, collagen-induced arthritis (CIA) (See supra). Male DBA/1 mice were immunized intradermally with 200 μg of bovine type II collagen and boosted with collagen three weeks later. Minocycline and four non-antibacterial minocycline derivatives were administered i.p. beginning after disease onset. Paw thickness was measured and animals were scored daily.
(§3) • 1. Male DBA/1 mice were immunized i.d. with an emulsion of 200 μg bovine type II collagen in Complete Freund's Adjuvant. • 2. On day 21, mice received i.d. boost of 100 μg collagen in Incomplete Freund's Adjuvant • 3. Compounds were administered i.p. daily for 7 days starting from disease onset (day 3-4 after boost). • 4. Foot swelling was measured by an engineering micrometer and disease severity was scored accordingly (1, erythema and mild swelling confined to the tarsal or ankle joint; 2, erythema and mild swelling extending from the ankle to the mid-foot; 3, erythema and moderate swelling extending from the ankle to the metatarsal joints; 4, erythema and severe swelling encompassing the ankle, foot, and digits). • 5. Change (Δ) of paw thickness=sum of paw thickness from 4 paws of a mouse (experimental)−sum of baseline paw thickness from 4 paws of the same mouse. • 6. % inhibition=cumulative A paw thickness (disease group−compound-treated group)/cumulative A paw thickness (disease group)

[5] = system: E. coli ATCC25922 (tetracycline sensitive); experiment: E. coli MIC, broth micro-dilution per CLSI guidelines (Table 3); assay type: cell-based; conditions: for MIC: Escherichia coli, E. coli ATCC25922, cation-adjusted Mueller Hinton broth
[6] = system: S. aureus RN450; experiment: Antibacterial activity MIC, Gram+ (Table 9); assay type: cell-based; conditions: Staphylococcus aureus, CAMHB, 35° C., approximately 18 hr
Experimental: as §1, §2

[7] = system: collagen-induced arthritis (CIA) in male DBA/1 mice; experiment: CIA model, Example 3 (cumulative scores vs untreated controls); assay type: in vivo; conditions: Mus musculus
Experimental: The CIA model data were acquired according to the following protocol: • 1. Male DBA/1 mice were anaesthetized by i.p. injection of ketamine/xylazine (1.25 mg/ml:0.25 mg/ml, 100 μl/mouse). • 2. Anaesthetized mice were immunized intradermally at the base of the tail with 0.1 or 0.2 ml of an emulsion composed of 100 or 200 μg bovine type II collagen in Complete Freund's Adjuvant (50 μl/spot x 2 or 4 spots). • 3. At day 21 after the immunization, mice received an intradermal boost of 100 μl of an emulsion composed of 100 μg bovine type II collagen in Incomplete Freund's Adjuvant (50 μl/spot x 2 spots) • 4. After onset of disease symptoms (usually 3-4 days after boost), tetracycline derivatives were administered daily into mice via intraperitoneal or oral routes for 8 to 15 days. Methotrexate (12 mg/kg/day) or dexmethasone (4 mg/kg/day) was used as a control for inflammation suppression. • 5. The disease severity was scored daily for 8-15 days after the appearance of the symptoms. Disease severity was graded as following: • a. Visual clinical score for the presence of inflammation in the fingers/toes of the forepaws and hindpaws: • 1. Erythema and mild swelling confined to the mid-foot (tarsals) or ankle joint • 2. Erythema and mild swelling extending from the ankle to the mid-foot • 3. Erythema and moderate swelling extending from the ankle to the metatarsal joints • 4. Erythema and severe swelling encompassing the ankle, foot, and digits. • b. Clinical swelling score for the presence of paw edema in the forepaws and hindpaws: • Paw thickness was measured daily by an engineering micrometer after isofluorane inhalation or ketamine/xylazine (1.25 mg/ml:0.25 mg/ml, 100 μl/mouse) i.p. injection.
Daily scores and paw swelling measurements for each treatment group of mice were added over the total observation period to obtain a cumulative score. Cumulative scores were compared between untreated controls and treated groups to determine tetracycline-induced inhibition.

[8] = system: cytokines (IL-1, IL-6, RANKL and MCP-1) and a matrix metalloproteinase (MMP-9); experiment: Paw extract biomarker ELISA, CIA mice: whole panel (statements in words); assay type: in vivo, mouse
Experimental: as §3
(§4) • 1. Paws were collected from mice after 5-7 days of dosing and dissected free of skin. • 2. The paws were then homogenized in ice-cold PBS (2 ml/4 paws/mouse) containing 1× protease inhibitor using a Polytron homogenizer. • 3. Debris and particles were removed from the homogenized samples by centrifugation. • 4. Liquid layers were collected for MMP-9, IL-1, IL-6, RANKL, MCP-1, and TNFα analysis using ELISA kits from R & D System.

[9] = system: IL-1; experiment: Paw extract biomarker ELISA, CIA mice: IL-1; assay type: in vivo, mouse; conditions: paw extracts from CIA mice
Experimental: as §3, §4

[10] = system: MMP-9; experiment: Paw extract biomarker ELISA, CIA mice: MMP-9; assay type: in vivo, mouse; conditions: paw extracts from CIA mice
Experimental: as §3, §4

[11] = system: MCP-1; experiment: Paw extract biomarker ELISA, CIA mice: MCP-1; assay type: in vivo, mouse; conditions: paw extracts from CIA mice
Experimental: as §3, §4

[12] = system: IL-6; experiment: Paw extract biomarker ELISA, CIA mice: IL-6; assay type: in vivo, mouse; conditions: paw extracts from CIA mice
Experimental: as §3, §4

[13] = system: RANKL; experiment: Paw extract biomarker ELISA, CIA mice: RANKL; assay type: in vivo, mouse; conditions: paw extracts from CIA mice
Experimental: as §3, §4

[14] = 25 mg/kg/day i.p., dosed after disease onset
[15] = day 1 of dosing, 25 mg/kg/day i.p.
[16] = day 2 of dosing, 25 mg/kg/day i.p.
[17] = day 3 of dosing, 25 mg/kg/day i.p.
[18] = day 4 of dosing, 25 mg/kg/day i.p.
[19] = day 5 of dosing, 25 mg/kg/day i.p.
[20] = day 6 of dosing, 25 mg/kg/day i.p.
[21] = day 7 of dosing, 25 mg/kg/day i.p.
[22] = day 8 of dosing, 25 mg/kg/day i.p.

Structure (SMILES) | bioavailability [2] | half-life [2] | MIC [3] | % Inhibition (Change in Paw Thickness) AVG [4, 14] | % Inhibition (Clinical Score) AVG [4, 14] | EC50 in inflammation suppression in CIA mice [4] | Change in Paw Thickness (mm) Mean [4, 15] | Change in Paw Thickness (mm) Mean [4, 16] | Change in Paw Thickness (mm) Mean [4, 17] | Change in Paw Thickness (mm) Mean [4, 18] | Change in Paw Thickness (mm) Mean [4, 19] | Change in Paw Thickness (mm) Mean [4, 20] | Change in Paw Thickness (mm) Mean [4, 21] | Change in Paw Thickness (mm) Mean [4, 22] | MIC [5] | MIC [6] | inhibition in vivo at 25 mg/kg [7] | Percent level of Biomarker Tissue [c] Compared to Untreated Control, IL-1 AVG [9] | Percent level of Biomarker Tissue [c] Compared to Untreated Control, MMP-9 AVG [10] | Percent level of Biomarker Tissue [c] Compared to Untreated Control, MCP-1 AVG [11] | further results
CN(C)c1cc(-c2cccn2C)c(O)c2c1C[C@H]1C[C@H]3CC(O)=C(C(N)=O)C(=O)[C@@]3(O)C(O)=C1C2=O [Compound AT] | 42% | 6.4 h | > 64 µg/mL | 81% | 70% | 12 mg/kg/day i.p. | 0.94 mm | 0.57 mm | 0.55 mm | 0.11 mm | 0.05 mm | 0.27 mm | −0.01 mm | −0.08 mm | > 64 µg/mL | 1 µg/mL (≈ 2.03 µM) | 81% | – | – | – | IC50 [1]: > 100 µM; bio-available after oral dosing in rats ([2]; oral): bio-available; Effects on reduction of paw swelling and clinical score compared to either minocycline or methotrexate ([4]; murine CIA model): greater; joint inflammation when administered after disease onset ([4]; murine CIA model): inhibited joint inflammation; anti-bacterial activity compared to minocycline [5]: no anti-bacterial activity; inhibition in vivo at 6 mg/kg ([7]; Dose 6 mg/kg): 45%; inhibition in vivo at 12 mg/kg ([7]; Dose 12 mg/kg): 49%; inhibition of inflammatory/osteoclastic cytokines (MMP-9, IL-1, IL-6, MCP-1, RANKL) in vivo [8]: better than minocycline
C[C@@H]1C[C@H]2[C@@H]3CCC4=CC(=O)C=C[C@]4(C)[C@@]3(F)[C@@H](O)C[C@]2(C)[C@@]1(O)C(=O)CO [Dexamethasone, dexamethasone, reference compound] | – | – | – | – | – | – | – | – | – | – | – | – | – | – | – | – | – | 16% | 35% | 5% | % Inhibition (Change in Paw Thickness) AVG ([4]; 4 mg/kg): 82%; % Inhibition (Clinical Score) AVG ([4]; 4 mg/kg): 48%; Change in Paw Thickness (mm) Mean ([4]; day 1 of dosing, 4 mg/kg/day i.p.): 0.92 mm; Change in Paw Thickness (mm) Mean ([4]; day 2 of dosing, 4 mg/kg/day i.p.): 0.57 mm; Change in Paw Thickness (mm) Mean ([4]; day 3 of dosing, 4 mg/kg/day i.p.): 0.47 mm; Change in Paw Thickness (mm) Mean ([4]; day 4 of dosing, 4 mg/kg/day i.p.): −0.07 mm; Change in Paw Thickness (mm) Mean ([4]; day 5 of dosing, 4 mg/kg/day i.p.): 0.03 mm; Change in Paw Thickness (mm) Mean ([4]; day 6 of dosing, 4 mg/kg/day i.p.): −0.13 mm; Change in Paw Thickness (mm) Mean ([4]; day 7 of dosing, 4 mg/kg/day i.p.): 0.04 mm; Change in Paw Thickness (mm) Mean ([4]; day 8 of dosing, 4 mg/kg/day i.p.): −0.21 mm; Percent level of Biomarker Tissue [c] Compared to Untreated Control, IL-6 AVG [12]: 4%; Percent level of Biomarker Tissue [c] Compared to Untreated Control, RANKL AVG [13]: 10%
CN(C)c1ccc(O)c2c1C[C@H]1C[C@H]3[C@H](N(C)C)C(O)=C(C(N)=O)C(=O)[C@@]3(O)C(O)=C1C2=O [Minocycline, minocycline, reference compound] | 31% | 3.6 h | 1 µg/mL (≈ 2.19 µM) | 22% | 18% | >50 mg/kg/day i.p. | 0.74 mm | 0.72 mm | 0.78 mm | 0.86 mm | 0.93 mm | 1.07 mm | 0.92 mm | 1.18 mm | 1 µg/mL (≈ 2.19 µM) | 0.06 µg/mL (≈ 0.131 µM) | 22% | 119% | 104% | 102% | inhibition of the disease (CIA) ([4]; 50 mg/kg/day i.p.): 45%; Percent level of Biomarker Tissue [c] Compared to Untreated Control, IL-6 AVG [12]: 114%; Percent level of Biomarker Tissue [c] Compared to Untreated Control, RANKL AVG [13]: 99%
